The values that follow come from the Biogen ADME set (Fang et al. 2023).

The conditions of the data set: for aqueous solubility: pH 6.8.

Values after ≈ are worked out from the molar mass of the structure shown.

On to `COc1cc2c(cc1OC)[C@@H]1CC(=O)[C@@H](CC(C)C)CN1CC2`, for which the MDR1-MDCK efflux ratio was 0.721; the intrinsic clearance, human liver microsomes turned out to be 57.8 mL/min/kg; the intrinsic clearance, rat liver microsomes was 330 mL/min/kg.

By aqueous solubility is commonly meant how much of the substance goes into solution per volume. Low values mean a poorly soluble substance, high ones a readily soluble substance. Regarding `Cc1cc(N(C)Cc2ccc(N)nc2)nc(-c2ccncc2)n1`, the MDR1-MDCK efflux ratio came out at 4.4; the intrinsic clearance, human liver microsomes is 44.2 mL/min/kg; the intrinsic clearance, rat liver microsomes was determined as 328 mL/min/kg; the aqueous solubility was 28.9 µg/mL (≈ 94.5 µM).

In the case of `Cc1nc(CCN2C(=O)NC(C)(C)C2=O)cs1`, the MDR1-MDCK efflux ratio is 4.61; the intrinsic clearance, human liver microsomes was at most 4.74 mL/min/kg; the intrinsic clearance, rat liver microsomes is 21.7 mL/min/kg; the aqueous solubility is 31.9 µg/mL (≈ 126 µM).

`Cc1cc(-c2nccs2)nc(CC2CCNCC2)n1`: the MDR1-MDCK efflux ratio was 20.1; the intrinsic clearance, human liver microsomes was at most 4.74 mL/min/kg; the intrinsic clearance, rat liver microsomes amounted to 38.8 mL/min/kg; the aqueous solubility was 36.5 µg/mL (≈ 133 µM).

Turning to `Cc1cc(C)cc(C(=O)Nc2nn(C(C)(C)C)cc2C#N)c1`, the MDR1-MDCK efflux ratio was 2.1; the intrinsic clearance, human liver microsomes was 11.2 mL/min/kg; the intrinsic clearance, rat liver microsomes turned out to be 270 mL/min/kg; the aqueous solubility is 38.6 µg/mL (≈ 130 µM).

Turning to `COc1cc(F)ccc1-c1ncnc(Nc2cccc(C[S@@](C)(=N)=O)c2)n1`, the MDR1-MDCK efflux ratio came out at 150; the fraction unbound, human plasma came to 0.393; the fraction unbound, rat plasma came out at 0.375; the intrinsic clearance, human liver microsomes was at most 4.74 mL/min/kg. The molecule also displayed an intrinsic clearance, rat liver microsomes of at most 10.7 mL/min/kg and an aqueous solubility of 53.7 µg/mL (≈ 139 µM).

The molecule `Cc1nc(C)n(-c2ccccc2NC(=O)c2cc(C#N)cn2C)n1` gave an intrinsic clearance, human liver microsomes of 11.6 mL/min/kg and an intrinsic clearance, rat liver microsomes of 163 mL/min/kg.

For `O=C(O)c1csc(Cc2ccc(Cl)cc2)n1`, the MDR1-MDCK efflux ratio was 0.4; the intrinsic clearance, human liver microsomes is at most 4.74 mL/min/kg; the intrinsic clearance, rat liver microsomes was at most 10.7 mL/min/kg.

As for `COc1ccccc1CNc1cn[nH]c(=O)c1Cl`, the MDR1-MDCK efflux ratio was found to be 1.3; the intrinsic clearance, human liver microsomes is at most 4.74 mL/min/kg; the intrinsic clearance, rat liver microsomes is 104 mL/min/kg.

In the case of `Cc1nn(-c2ccccn2)c2nc(C3CC3)cc(C(=O)O)c12`, the MDR1-MDCK efflux ratio was 2.52; the intrinsic clearance, human liver microsomes stood at 4.89 mL/min/kg; the intrinsic clearance, rat liver microsomes is at most 10.7 mL/min/kg; the aqueous solubility was 51.2 µg/mL (≈ 174 µM).

Take `CCc1nnc(NC(=O)Cc2cccc(F)c2)s1`: the MDR1-MDCK efflux ratio worked out at 0.912; the intrinsic clearance, human liver microsomes turned out to be 7.42 mL/min/kg; the intrinsic clearance, rat liver microsomes worked out at 76.3 mL/min/kg; the aqueous solubility was 12.2 µg/mL (≈ 46 µM).

With `Cc1nccc(NC(=O)c2ccc(Cl)nc2Cl)n1`, the MDR1-MDCK efflux ratio is 0.548; the intrinsic clearance, human liver microsomes was 5.24 mL/min/kg; the intrinsic clearance, rat liver microsomes stood at 15.2 mL/min/kg.

The molecule `O=C1NCCSc2c1sc1ccc(O)cc21` came in with a fraction unbound, human plasma of 0.0779; a fraction unbound, rat plasma of 0.146; an intrinsic clearance, human liver microsomes of 48.8 mL/min/kg; an intrinsic clearance, rat liver microsomes of 95.1 mL/min/kg.

`Cc1nc(-c2ccncc2)cc(N2CCC(CO)CC2)n1` showed an intrinsic clearance, human liver microsomes of at most 4.74 mL/min/kg and an intrinsic clearance, rat liver microsomes of 36.9 mL/min/kg.

As to `Oc1ccc(CN2CCN(c3cccc(Cl)c3)CC2)cc1`, the MDR1-MDCK efflux ratio is 0.451; the intrinsic clearance, human liver microsomes worked out at 33.6 mL/min/kg; the intrinsic clearance, rat liver microsomes was found to be 90 mL/min/kg; the aqueous solubility was found to be 2.2 µg/mL (≈ 7.27 µM).

For the molecule `CN(C)c1ccc(-c2ccc(C(=O)NCCN3CCCC3=O)cc2)nn1`, the MDR1-MDCK efflux ratio stood at 55.2; the intrinsic clearance, human liver microsomes is at most 4.74 mL/min/kg; the intrinsic clearance, rat liver microsomes stood at 75 mL/min/kg.

As for `Cn1nccc1CC1CCN(C2CCCC2)CC1`, the MDR1-MDCK efflux ratio is 0.94; the intrinsic clearance, human liver microsomes is at most 4.74 mL/min/kg; the intrinsic clearance, rat liver microsomes was determined as 258 mL/min/kg; the aqueous solubility was found to be 26.2 µg/mL (≈ 106 µM).

On to `COc1ccc(C(=O)c2ccccc2)c(Oc2nc3c(c(=O)n(C)c(=O)n3C)n2C)c1`, for which the MDR1-MDCK efflux ratio came out at 1.83; the intrinsic clearance, human liver microsomes was 21.5 mL/min/kg; the intrinsic clearance, rat liver microsomes was 1510 mL/min/kg; the aqueous solubility was found to be 49.3 µg/mL (≈ 117 µM).

Regarding `CC(C(=O)Nc1ccccc1)N1CCCC(c2nc3ccccc3o2)C1` (stereo not drawn), the MDR1-MDCK efflux ratio was found to be 0.831; the intrinsic clearance, rat liver microsomes was determined as 3000 mL/min/kg; the aqueous solubility was 26.9 µg/mL (≈ 76.8 µM).

Take `COc1nccnc1N1CCC(C(=O)Nc2cccc(F)c2)CC1`: the MDR1-MDCK efflux ratio was 0.629; the intrinsic clearance, human liver microsomes was 182 mL/min/kg; the intrinsic clearance, rat liver microsomes came to 298 mL/min/kg.

Turning to `CC(C)CCN1CCC(CNS(C)(=O)=O)CC1`, the MDR1-MDCK efflux ratio was found to be 2.43; the intrinsic clearance, human liver microsomes is at most 4.74 mL/min/kg; the intrinsic clearance, rat liver microsomes is at most 10.7 mL/min/kg.

On to `Cc1cccc(/C=N/Nc2cc(N3CCOCC3)nc(OCCc3ccccn3)n2)c1`, for which the MDR1-MDCK efflux ratio was determined as 0.917; the fraction unbound, human plasma was 0.00283; the fraction unbound, rat plasma worked out at 0.0053; the intrinsic clearance, human liver microsomes is 130 mL/min/kg.

Turning to `CN(Cc1ccn(-c2ccccc2)n1)C(=O)c1ccc(O)nc1`, the MDR1-MDCK efflux ratio worked out at 30.8; the intrinsic clearance, human liver microsomes was at most 4.74 mL/min/kg; the intrinsic clearance, rat liver microsomes is at most 10.7 mL/min/kg; the aqueous solubility was determined as 39.6 µg/mL (≈ 128 µM).

Take `COc1ccc(C(=O)Nc2ccc3oc(C)nc3c2)c(OC)c1`: the MDR1-MDCK efflux ratio came out at 0.547; the intrinsic clearance, human liver microsomes came to 25.3 mL/min/kg; the intrinsic clearance, rat liver microsomes is 191 mL/min/kg; the aqueous solubility stood at 15.4 µg/mL (≈ 49.4 µM).

`COC(c1ccccc1)(c1ccccc1)[C@H](Oc1nc(C)cc(C)n1)C(=O)O`: the MDR1-MDCK efflux ratio amounted to 38.3; the intrinsic clearance, human liver microsomes was at most 4.74 mL/min/kg; the intrinsic clearance, rat liver microsomes was at most 10.7 mL/min/kg.

For `O=c1[nH]c(=O)n([C@H]2C[C@H](O)[C@@H](CO)O2)cc1C(F)(F)F`, the intrinsic clearance, human liver microsomes was found to be 41.9 mL/min/kg and the intrinsic clearance, rat liver microsomes is at most 10.7 mL/min/kg.

Molecule `CCCN(C(=O)c1ccc(COC)o1)c1nc2c(s1)CCc1c-2cnn1C` registered an intrinsic clearance, human liver microsomes of 75.6 mL/min/kg and an intrinsic clearance, rat liver microsomes of 89 mL/min/kg.

Turning to `O/N=C1/CCCc2c1cnc1ncnn21`, the MDR1-MDCK efflux ratio amounted to 1.67; the intrinsic clearance, human liver microsomes was at most 4.74 mL/min/kg; the intrinsic clearance, rat liver microsomes is at most 10.7 mL/min/kg.

In turn, `Cc1ccc(C(=O)Nc2nc3ccccc3[nH]2)cc1` yielded an aqueous solubility of 0.85 µg/mL (≈ 3.38 µM).

As to `O=C(c1cccc(Nc2ncccn2)c1)N1CCOCC(Cc2cccc3ccncc23)C1` (stereo not drawn), the MDR1-MDCK efflux ratio was found to be 28; the intrinsic clearance, human liver microsomes came out at 281 mL/min/kg; the intrinsic clearance, rat liver microsomes was found to be 1650 mL/min/kg.

Turning to `COc1ccccc1-c1nnc([C@H]2CCN(Cc3ccccc3C)C2)o1`, the MDR1-MDCK efflux ratio was 0.755; the intrinsic clearance, human liver microsomes was found to be 158 mL/min/kg; the intrinsic clearance, rat liver microsomes is 3190 mL/min/kg; the aqueous solubility is 37 µg/mL (≈ 106 µM).

Consider `COc1cccc(OCCCn2cncc2-c2cc3c(cc2OC)OCCCO3)c1`, for which the MDR1-MDCK efflux ratio worked out at 5.28; the intrinsic clearance, human liver microsomes amounted to 16.7 mL/min/kg; the intrinsic clearance, rat liver microsomes was 106 mL/min/kg; the aqueous solubility stood at 95.5 µg/mL (≈ 233 µM).

`CCCn1cc(NC(=O)Nc2ccc(N3CCSCC3)cc2)cn1`: the MDR1-MDCK efflux ratio amounted to 7.18; the intrinsic clearance, human liver microsomes amounted to 44.4 mL/min/kg; the intrinsic clearance, rat liver microsomes was 808 mL/min/kg.

Consider `Cc1nc(-c2ccc(Cl)c(Cl)c2)n(CC(C)(C)O)n1`, for which the MDR1-MDCK efflux ratio was 0.634; the intrinsic clearance, human liver microsomes is at most 4.74 mL/min/kg; the intrinsic clearance, rat liver microsomes was at most 10.7 mL/min/kg; the aqueous solubility was 41.9 µg/mL (≈ 140 µM).

For `Cc1ccccc1OC1CCN(C(=O)Nc2ccc3c(c2)ncn3C)CC1`, the MDR1-MDCK efflux ratio came to 8.7; the intrinsic clearance, human liver microsomes stood at 11.4 mL/min/kg; the intrinsic clearance, rat liver microsomes turned out to be 54.5 mL/min/kg; the aqueous solubility turned out to be 26.7 µg/mL (≈ 73.4 µM).

As to `CCCc1noc2nc(-c3ccncc3)cc(C(=O)O)c12`, the MDR1-MDCK efflux ratio worked out at 0.841; the intrinsic clearance, human liver microsomes is at most 4.74 mL/min/kg; the intrinsic clearance, rat liver microsomes is 18.1 mL/min/kg.

`CC(O)(C#Cc1ccc2c(c1)N(c1nc(N)ncc1Cl)CC2)c1nccs1` (stereo not drawn): the MDR1-MDCK efflux ratio is 5.75; the fraction unbound, human plasma turned out to be 0.00754; the fraction unbound, rat plasma came to 0.0188; the intrinsic clearance, human liver microsomes came out at 72.5 mL/min/kg. The molecule further displayed an intrinsic clearance, rat liver microsomes of 327 mL/min/kg.

Turning to `CN(C)c1cccc(C(=O)N2CCCC(c3cccc(-c4cccs4)n3)C2)c1` (stereo not drawn), the MDR1-MDCK efflux ratio is 0.647; the intrinsic clearance, human liver microsomes was found to be 499 mL/min/kg; the intrinsic clearance, rat liver microsomes was 3630 mL/min/kg; the aqueous solubility is 2.1 µg/mL (≈ 5.36 µM).

As for `N#Cc1ccccc1Cn1nnc(-c2ccccc2)n1`, the MDR1-MDCK efflux ratio came out at 0.448; the intrinsic clearance, human liver microsomes stood at 10.7 mL/min/kg; the intrinsic clearance, rat liver microsomes was found to be 211 mL/min/kg; the aqueous solubility was found to be 11.4 µg/mL (≈ 43.8 µM).

In the case of `CC(C)c1nnc(CN2CCN(c3ccccc3Cl)CC2)o1`, the MDR1-MDCK efflux ratio stood at 0.652; the intrinsic clearance, human liver microsomes amounted to 91 mL/min/kg; the intrinsic clearance, rat liver microsomes was 869 mL/min/kg; the aqueous solubility is 50.7 µg/mL (≈ 158 µM).

For `c1ccc(CCc2n[nH]c(-c3cccc4cnccc34)n2)cc1`, the MDR1-MDCK efflux ratio stood at 1.09; the intrinsic clearance, human liver microsomes amounted to 107 mL/min/kg; the intrinsic clearance, rat liver microsomes was found to be 443 mL/min/kg; the aqueous solubility stood at 41.7 µg/mL (≈ 139 µM).

For the molecule `Cc1ccc(Cn2nc(C)c(C(N)=O)c2Cl)cc1`, the MDR1-MDCK efflux ratio stood at 0.663; the intrinsic clearance, human liver microsomes is 7.25 mL/min/kg; the intrinsic clearance, rat liver microsomes amounted to 358 mL/min/kg; the aqueous solubility was found to be 24.4 µg/mL (≈ 92.6 µM).

As to `CSc1nnc(CCCNc2cc(C)ccn2)n1C1CCCC1`, the MDR1-MDCK efflux ratio stood at 18.2; the intrinsic clearance, human liver microsomes stood at 138 mL/min/kg; the intrinsic clearance, rat liver microsomes was determined as 3220 mL/min/kg.

In the case of `CN(C)C(=O)Cn1cc(C(=O)O)ccc1=O`, the intrinsic clearance, human liver microsomes is at most 4.74 mL/min/kg; the intrinsic clearance, rat liver microsomes is at most 10.7 mL/min/kg; the aqueous solubility is 21.1 µg/mL (≈ 93.9 µM).
